Assay results: US6905841B2, “Enzymatic substrates for detecting Pseudomonas aeruginas” (Biomerieux S.A., priority 1999, dated 2005)

Columns and labels:
Test in all cases: Vitek 2 cards, broth with β-Alanyl p-nitroanilide
β-alanine aminopeptidase [1] = conditions: Achromobacter xylosoxydans; 2 strains tested; read after 19 hours
β-alanine aminopeptidase [2] = conditions: Shewanella algae; 1 strain tested; read after 19 hours
β-alanine aminopeptidase [3] = conditions: Brevundimonas diminuta; 1 strain tested; read after 19 hours
β-alanine aminopeptidase [4] = conditions: Providencia stuartii; 1 strain tested; read after 19 hours
β-alanine aminopeptidase [5] = conditions: Vibrio vulnificus; 1 strain tested; read after 19 hours
β-alanine aminopeptidase [6] = conditions: Serratia marcescens; 1 strain tested; read after 19 hours
β-alanine aminopeptidase [7] = conditions: Acinetobacter baumannii; 2 strains tested; read after 19 hours
β-alanine aminopeptidase [8] = conditions: Salmonella arizonae; 1 strain tested; read after 19 hours
β-alanine aminopeptidase [9] = conditions: Escherichia coli; 2 strains tested; read after 19 hours
β-alanine aminopeptidase [10] = conditions: Aeromonas hydrophila; 2 strains tested; read after 19 hours
β-alanine aminopeptidase [11] = conditions: Stenotrophomonas maltophilia; 2 strains tested; read after 19 hours
β-alanine aminopeptidase [12] = conditions: Sphingomonas paucimobilis; 2 strains tested; read after 19 hours
β-alanine aminopeptidase [13] = conditions: Citrobacter amalonaticus; 2 strains tested; read after 19 hours
β-alanine aminopeptidase [14] = conditions: Moraxella non liquefaciens; 2 strains tested; read after 19 hours
β-alanine aminopeptidase [15] = format: cell-based; conditions: Myroïdes spp.; 1 strain tested; read after 19 hours
β-alanine aminopeptidase [16] = conditions: Ralstonia pickettii; 1 strain tested; read after 19 hours
β-alanine aminopeptidase [17] = conditions: Pseudomonas putida; 1 strain tested; read after 19 hours
β-alanine aminopeptidase [18] = conditions: Chryseobacterium meningosepticum; 1 strain tested; read after 19 hours
β-alanine aminopeptidase [19] = conditions: Pseudomonas stutzeri; 3 strains tested; read after 19 hours
β-alanine aminopeptidase [20] = conditions: Proteus vulgaris; 1 strain tested; read after 19 hours
β-alanine aminopeptidase [21] = conditions: Proteus mirabilis; 2 strains tested; read after 19 hours
β-alanine aminopeptidase [22] = conditions: Burkholderia vesicularis; 1 strain tested; read after 19 hours
β-alanine aminopeptidase [23] = conditions: Citrobacter freundii; 2 strains tested; read after 19 hours
β-alanine aminopeptidase [24] = conditions: Enterobacter cloacae; 2 strains tested; read after 19 hours
β-alanine aminopeptidase [25] = conditions: Citrobacter koseri; 1 strain tested; read after 19 hours
β-alanine aminopeptidase [26] = conditions: Pseudomonas aeruginosa; 4 strains tested; read after 19 hours
β-alanine aminopeptidase [27] = conditions: Enterobacter aerogenes; 2 strains tested; read after 19 hours
β-alanine aminopeptidase [28] = conditions: Klebsiella pneumoniae; 2 strains tested; read after 19 hours
β-alanine aminopeptidase [29] = conditions: Serratia liquefaciens; 1 strain tested; read after 19 hours
β-alanine aminopeptidase [30] = conditions: Enterobacter intermedius; 1 strain tested; read after 19 hours
β-alanine aminopeptidase [31] = conditions: Klebsiella oxytoca; 2 strains tested; read after 19 hours

For `NCCC(=O)Nc1ccc([N+](=O)[O-])cc1` [β-Alanyl-p-nitroanilide, β-Alanine p-nitroanilide], the “Number of negative results” value (β-alanine aminopeptidase [1]) was 2, the Number positive results (β-alanine aminopeptidase [1]) was 0 and the “Number of negative results” value (β-alanine aminopeptidase [2]) was 1. For the same molecule, the Number positive results (β-alanine aminopeptidase [2]) was 0, the “Number of negative results” value (β-alanine aminopeptidase [3]) was 1 and the Number positive results (β-alanine aminopeptidase [3]) was 0. For the same molecule, the “Number of negative results” value (β-alanine aminopeptidase [4]) was 1, the Number positive results (β-alanine aminopeptidase [4]) was 0 and the “Number of negative results” value (β-alanine aminopeptidase [5]) was 1. For the same molecule, the Number positive results (β-alanine aminopeptidase [5]) was 0, the “Number of negative results” value (β-alanine aminopeptidase [6]) was 0 and the Number positive results (β-alanine aminopeptidase [6]) was 1. The “Number of negative results” value (β-alanine aminopeptidase [7]) was 2, the Number positive results (β-alanine aminopeptidase [7]) was 0 and the “Number of negative results” value (β-alanine aminopeptidase [8]) was 1. The Number positive results (β-alanine aminopeptidase [8]) was 0, the “Number of negative results” value (β-alanine aminopeptidase [9]) was 2 and the Number positive results (β-alanine aminopeptidase [9]) was 0. The “Number of negative results” value (β-alanine aminopeptidase [10]) was 2, the Number positive results (β-alanine aminopeptidase [10]) was 0 and the “Number of negative results” value (β-alanine aminopeptidase [11]) was 2. The Number positive results (β-alanine aminopeptidase [11]) was 0, the “Number of negative results” value (β-alanine aminopeptidase [12]) was 2 and the Number positive results (β-alanine aminopeptidase [12]) was 0. The “Number of negative results” value (β-alanine aminopeptidase [13]) was 2, the Number positive results (β-alanine aminopeptidase [13]) was 0 and the “Number of negative results” value (β-alanine aminopeptidase [14]) was 2. For the same molecule, the Number positive results (β-alanine aminopeptidase [14]) was 0, the “Number of negative results” value (β-alanine aminopeptidase [15]) was 1 and the Number positive results (β-alanine aminopeptidase [15]) was 0. For the same molecule, the “Number of negative results” value (β-alanine aminopeptidase [16]) was 1, the Number positive results (β-alanine aminopeptidase [16]) was 0 and the “Number of negative results” value (β-alanine aminopeptidase [17]) was 1. For the same molecule, the Number positive results (β-alanine aminopeptidase [17]) was 0, the “Number of negative results” value (β-alanine aminopeptidase [18]) was 1 and the Number positive results (β-alanine aminopeptidase [18]) was 0. The “Number of negative results” value (β-alanine aminopeptidase [19]) was 3, the Number positive results (β-alanine aminopeptidase [19]) was 0 and the “Number of negative results” value (β-alanine aminopeptidase [20]) was 1. For the same molecule, the Number positive results (β-alanine aminopeptidase [20]) was 0, the “Number of negative results” value (β-alanine aminopeptidase [21]) was 2 and the Number positive results (β-alanine aminopeptidase [21]) was 0. For the same molecule, the “Number of negative results” value (β-alanine aminopeptidase [22]) was 1, the Number positive results (β-alanine aminopeptidase [22]) was 0 and the “Number of negative results” value (β-alanine aminopeptidase [23]) was 2. The Number positive results (β-alanine aminopeptidase [23]) was 0, the “Number of negative results” value (β-alanine aminopeptidase [24]) was 2 and the Number positive results (β-alanine aminopeptidase [24]) was 0. The “Number of negative results” value (β-alanine aminopeptidase [25]) was 1, the Number positive results (β-alanine aminopeptidase [25]) was 0 and the “Number of negative results” value (β-alanine aminopeptidase [26]) was 0. The Number positive results (β-alanine aminopeptidase [26]) was 4, the “Number of negative results” value (β-alanine aminopeptidase [27]) was 2 and the Number positive results (β-alanine aminopeptidase [27]) was 0. For the same molecule, the “Number of negative results” value (β-alanine aminopeptidase [28]) was 2, the Number positive results (β-alanine aminopeptidase [28]) was 0 and the “Number of negative results” value (β-alanine aminopeptidase [29]) was 0. The Number positive results (β-alanine aminopeptidase [29]) was 1, the “Number of negative results” value (β-alanine aminopeptidase [30]) was 1 and the Number positive results (β-alanine aminopeptidase [30]) was 0. For the same molecule, the “Number of negative results” value (β-alanine aminopeptidase [31]) was 2 and the Number positive results (β-alanine aminopeptidase [31]) was 0.
